Assay results as given in patent US9663529B2, “Tricyclic pyrido-carboxamide derivatives as rock inhibitors” (BRISTOL-MYERS SQUIBB COMPANY, priority 2013, dated 2017).

The compounds below were run against ROCK2 (Homo sapiens (Human), UniProt O75116) (assay: ROCK assay (Caliper LABCHIP peptide phosphorylation, 5 μM ATP)). Conditions: 1.5 μM peptide substrate.
Type: biochemical

ROCK2, sequence (O75116 whole entry, species assumed): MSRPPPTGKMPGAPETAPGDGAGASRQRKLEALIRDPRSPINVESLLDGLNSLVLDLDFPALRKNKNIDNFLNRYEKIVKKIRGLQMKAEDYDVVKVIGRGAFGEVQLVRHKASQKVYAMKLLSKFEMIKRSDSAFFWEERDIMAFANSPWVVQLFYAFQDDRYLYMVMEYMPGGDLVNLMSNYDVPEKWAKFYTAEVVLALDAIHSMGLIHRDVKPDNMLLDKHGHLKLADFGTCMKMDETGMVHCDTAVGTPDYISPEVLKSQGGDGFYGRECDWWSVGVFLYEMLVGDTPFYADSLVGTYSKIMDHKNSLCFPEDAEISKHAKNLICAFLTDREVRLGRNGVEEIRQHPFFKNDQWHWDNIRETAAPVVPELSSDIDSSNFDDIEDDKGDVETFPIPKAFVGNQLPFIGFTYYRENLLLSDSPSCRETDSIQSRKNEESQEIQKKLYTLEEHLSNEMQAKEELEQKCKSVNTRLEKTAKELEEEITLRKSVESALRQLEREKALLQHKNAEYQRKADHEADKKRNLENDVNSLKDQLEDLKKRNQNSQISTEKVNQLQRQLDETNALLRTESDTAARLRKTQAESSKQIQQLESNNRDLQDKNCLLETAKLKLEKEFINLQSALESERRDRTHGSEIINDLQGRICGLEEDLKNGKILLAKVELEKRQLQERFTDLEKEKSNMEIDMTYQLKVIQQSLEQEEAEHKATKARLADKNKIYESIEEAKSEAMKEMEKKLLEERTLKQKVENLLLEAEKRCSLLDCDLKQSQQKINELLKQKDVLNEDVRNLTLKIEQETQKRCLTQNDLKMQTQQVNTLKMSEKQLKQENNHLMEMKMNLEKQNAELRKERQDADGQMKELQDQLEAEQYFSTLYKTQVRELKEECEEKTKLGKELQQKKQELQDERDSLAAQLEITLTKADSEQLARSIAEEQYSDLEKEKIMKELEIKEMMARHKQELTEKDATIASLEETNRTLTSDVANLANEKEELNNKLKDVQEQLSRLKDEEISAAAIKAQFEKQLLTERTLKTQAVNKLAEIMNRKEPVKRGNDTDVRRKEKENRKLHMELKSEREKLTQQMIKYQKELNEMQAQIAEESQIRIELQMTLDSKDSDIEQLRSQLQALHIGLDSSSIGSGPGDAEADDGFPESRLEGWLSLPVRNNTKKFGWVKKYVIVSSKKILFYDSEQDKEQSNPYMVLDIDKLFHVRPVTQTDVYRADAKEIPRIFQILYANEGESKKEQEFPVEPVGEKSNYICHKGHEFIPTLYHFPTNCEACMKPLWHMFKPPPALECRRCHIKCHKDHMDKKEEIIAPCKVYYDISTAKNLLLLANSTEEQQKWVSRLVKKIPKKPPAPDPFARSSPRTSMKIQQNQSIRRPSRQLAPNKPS

| Structure (SMILES) | IC50 |
| --- | --- |
| O=C(CCOc1ccccc1)Nc1ccc2c(c1)OCc1cnccc1-2 [Example I-2, N-(5H-chromeno[3,4-c]pyridin-8-yl)-3-phenoxypropanamide] | 0.0822 µM |
| N[C@@H](CCc1ccccc1)C(=O)Nc1ccc2c(c1)OCc1cnccc1-2 [Example I-3, (S)-2-amino-N-(5H-chromeno[3,4-c]pyridin-8-yl)-4-phenylbutanamide] | 0.284 µM |
| N[C@H](CCc1ccccc1)C(=O)Nc1ccc2c(c1)OCc1cnccc1-2 [Example I-4, (R)-2-amino-N-(5H-chromeno[3,4-c]pyridin-8-yl)-4-phenylbutanamide] | 0.128 µM |
| CC(C(=O)Nc1ccc2c(c1)OCc1cnccc1-2)c1ccccc1Cl (stereo not shown) [Example I-5, 2-(2-chlorophenyl)-N-(5H-chromeno [3,4-c]pyridin-8-yl) propanamide] | 0.0335 µM |
| O=C(Cc1ccc(F)cc1Cl)Nc1ccc2c(c1)OCc1cnccc1-2 [Example I-10, 2-(2-chloro-4-fluorophenyl)-N-(5H-chromeno[3,4-c]pyridin-8-yl)acetamide] | 0.00627 µM |
| O=C(Cc1cccc(Cl)c1)Nc1ccc2c(c1)OCc1cnccc1-2 [Example I-11, 2-(3-chlorophenyl)-N-(5H-chromeno [3,4-c]pyridin-8-yl) acetamide] | 0.0248 µM |
| Cc1cccc(CC(=O)Nc2ccc3c(c2)OCc2cnccc2-3)c1 [Example I-12, N-(5H-chromeno[3,4-c]pyridin-8-yl)-2-m-tolylacetamide] | 0.0745 µM |
| O=C(Cc1ccc(Cl)cc1)Nc1ccc2c(c1)OCc1cnccc1-2 [Example I-13, 2-(4-chlorophenyl)-N-(5H-chromeno [3,4-c]pyridin-8-yl) acetamide] | 0.134 µM |
| O=C(Cc1ccc(Cl)cc1Cl)Nc1ccc2c(c1)OCc1cnccc1-2 [Example I-14, N-(5H-chromeno [3,4-c]pyridin-8-yl)-2-(2,4-dichlorophenyl) acetamide] | 0.0544 µM |
| Cc1ccccc1CC(=O)Nc1ccc2c(c1)OCc1cnccc1-2 [Example I-15, N-(5H-chromeno[3,4-c]pyridin-8-yl)-2-o-tolylacetamide] | 0.0167 µM |
| Cc1cc(C)cc(CC(=O)Nc2ccc3c(c2)OCc2cnccc2-3)c1 [Example I-16, N-(5H-chromeno[3,4-c]pyridin-8-yl)-2-(3,5-dimethylphenyl) acetamide] | 0.11 µM |
| O=C(Cc1cc(F)cc(F)c1)Nc1ccc2c(c1)OCc1cnccc1-2 [Example I-17, N-(5H-chromeno[3,4-c]pyridin-8-yl)-2-(3,5-difluorophenyl) acetamide] | 0.0378 µM |
| COc1cc(CC(=O)Nc2ccc3c(c2)OCc2cnccc2-3)cc(OC)c1 [Example I-18, N-(5H-chromeno[3,4-c]pyridin-8-yl)-2-(3,5-dimethoxyphenyl) acetamide] | 0.393 µM |
| COc1ccc(CC(=O)Nc2ccc3c(c2)OCc2cnccc2-3)cc1OC [Example I-19, N-(5H-chromeno[3,4-c]pyridin-8-yl)-2-(3,4-dimethoxyphenyl) acetamide] | 2.5 µM |
| CS(=O)(=O)c1ccc(CC(=O)Nc2ccc3c(c2)OCc2cnccc2-3)cc1 [Example I-20, N-(5H-chromeno[3,4-c]pyridin-8-yl)-2-(4-(methylsulfonyl)phenyl)acetamide] | 1.76 µM |
| O=C(Cc1c(Cl)cccc1Cl)Nc1ccc2c(c1)OCc1cnccc1-2 [Example I-21, N-(5H-chromeno[3,4-c]pyridin-8-yl)-2-(2,6-dichlorophenyl) acetamide] | 0.161 µM |
| O=C(Cc1cccc(C(F)(F)F)c1)Nc1ccc2c(c1)OCc1cnccc1-2 [Example I-22, N-(5H-chromeno[3,4-c]pyridin-8-yl)-2-(3-(trifluoromethyl)phenyl)acetamide] | 0.159 µM |

| Structure (SMILES) | IC50 |
| --- | --- |
| O=C(Cc1cc(F)cc(C(F)(F)F)c1)Nc1ccc2c(c1)OCc1cnccc1-2 [Example I-23, N-(5H-chromeno[3,4-c]pyridin-8-yl)-2-(3-fluoro-5-(trifluoromethyl)phenyl)acetamide] | 0.368 µM |
| Cc1cc(F)ccc1CC(=O)Nc1ccc2c(c1)OCc1cnccc1-2 [Example I-24, N-(5H-chromeno[3,4-c]pyridin-8-yl)-2-(4-fluoro-2-methylphenyl) acetamide] | 0.0111 µM |
| CSc1ccc(CC(=O)Nc2ccc3c(c2)OCc2cnccc2-3)cc1 [Example I-25, N-(5H-chromeno[3,4-c]pyridin-8-yl)-2-(4-(methylthio)phenyl) acetamide] | 0.295 µM |
| O=C(Cc1ccc(F)cc1)Nc1ccc2c(c1)OCc1cnccc1-2 [Example I-26, N-(5H-chromeno[3,4-c]pyridin-8-yl)-2-(4-fluorophenyl) acetamide] | 0.0387 µM |
| N#Cc1ccc(-c2cnn(Cc3cccc(C(=O)Nc4ccc5c(c4)OCc4cnccc4-5)c3)c2)cc1 [Example I-27, N-(5H-chromeno[3,4-c]pyridin-8-yl)-3-((4-(4-cyanophenyl)-1H-pyrazol-1-yl)methyl)benzamide] | 0.0608 µM |
| O=C(Nc1ccc2c(c1)OCc1cnccc1-2)c1ccc(F)cc1 [Example I-28, N-(5H-chromeno[3,4-c]pyridin-8-yl)-4-fluorobenzamide] | 3.44 µM |
| CS(=O)(=O)c1ccc(C(=O)Nc2ccc3c(c2)OCc2cnccc2-3)cc1 [Example I-29, N-(5H-chromeno[3,4-c]pyridin-8-yl)-4-(methylsulfonyl) benzamide] | 2.05 µM |
| O=C(Nc1ccc2c(c1)OCc1cnccc1-2)c1cnccn1 [Example I-30, N-(5H-chromeno[3,4-c]pyridin-8-yl) pyrazine-2-carboxamide] | 2.94 µM |
| COc1ccc(CC(=O)Nc2ccc3c(c2)OCc2cnccc2-3)cc1 [Example I-31, N-(5H-chromeno[3,4-c]pyridin-8-yl)-2-(4-methoxyphenyl) acetamide] | 0.497 µM |
| O=C(CCCc1ccccc1)Nc1ccc2c(c1)OCc1cnccc1-2 [Example I-32, N-(5H-chromeno[3,4-c]pyridin-8-yl)-4-phenylbutanamide] | 0.682 µM |
| O=C(Cc1ccccn1)Nc1ccc2c(c1)OCc1cnccc1-2 [Example I-33, N-(5H-chromeno[3,4-c]pyridin-8-yl)-2-(pyridin-2-yl) acetamide] | 0.367 µM |
| O=C(Cc1ccncc1)Nc1ccc2c(c1)OCc1cnccc1-2 [Example I-34, N-(5H-chromeno[3,4-c]pyridin-8-yl)-2-(pyridin-4-yl) acetamide] | 0.207 µM |
| CC(=O)Nc1cccc(C(=O)Nc2ccc3c(c2)OCc2cnccc2-3)c1 [Example I-35, 3-acetamido-N-(5H-chromeno[3,4-c]pyridin-8-yl) benzamide] | 0.434 µM |
| CC(C)(C(=O)Nc1ccc2c(c1)OCc1cnccc1-2)c1ccccc1 [Example I-36, N-(5H-chromeno [3,4-c]pyridin-8-yl)-2-methyl-2-phenylpropanamide] | 0.204 µM |
| O=C(CCc1ccc(Cl)cc1)Nc1ccc2c(c1)OCc1cnccc1-2 [Example I-37, 3-(4-chlorophenyl)-N-(5H-chromeno [3,4-c]pyridin-8-yl) propanamide] | 0.323 µM |
| COC(=O)c1cccc(C(=O)Nc2ccc3c(c2)OCc2cnccc2-3)c1 [Example I-38, methyl 3-(5H-chromeno[3,4-c]pyridin-8-ylcarbamoyl)benzoate] | 0.847 µM |
| O=C(Nc1ccc2c(c1)OCc1cnccc1-2)c1csc(-c2cccnc2)n1 [Example I-39, N-(5H-chromeno[3,4-c]pyridin-8-yl)-2-(pyridin-3-yl) thiazole-4-carboxamide] | 0.644 µM |
